*1 amine or outer side, *2 acyl side, *3 side chain or, on linkers, in order; H or OH if unused. Where a SMILES comes first, the peptide text is derived from it. Where no end group is shown, it is not given here. [ ]: non-standard residue; d: D form. The star is where a group is joined. X3 = O=C([C@@H]1C[C@H](Oc2ccc([N+](=O)[O-])cc2)CN1[*:1])[*:2]; X2 = O=C([C@@H]1C[C@H](Oc2ccccc2[N+](=O)[O-])CN1[*:1])[*:2]; Pro(cis-4-OPh) = O=C(O)[C@@H]1C[C@H](Oc2ccccc2)CN1; X1 = O=C([C@@H]1C[C@H](Sc2ccccc2)CN1[*:1])[*:2]; cisHyp = O=C(O)[C@@H]1C[C@H](O)CN1; Hyp = O=C(O)[C@@H]1C[C@@H](O)CN1; Cyclohexylmethyl = C1CCC(C*)CC1; dTic = O=C(O)[C@H]1Cc2ccccc2CN1
Columns and labels:
bradykinin receptor = molecular target: T1, bradykinin receptor (Cavia porcellus, UniProt O70526); assay: 3H-Bradykinin binding assay, guinea pig terminal ileum homogenate; settings: competition with 3H-bradykinin (~0.3 nM), guinea pig terminal ileum membranes, 90 min ambient temperature
T1 construct: from tissue; host or cells: guinea pig terminal ileum, washed membrane homogenate
T1 sequence (O70526 1-372): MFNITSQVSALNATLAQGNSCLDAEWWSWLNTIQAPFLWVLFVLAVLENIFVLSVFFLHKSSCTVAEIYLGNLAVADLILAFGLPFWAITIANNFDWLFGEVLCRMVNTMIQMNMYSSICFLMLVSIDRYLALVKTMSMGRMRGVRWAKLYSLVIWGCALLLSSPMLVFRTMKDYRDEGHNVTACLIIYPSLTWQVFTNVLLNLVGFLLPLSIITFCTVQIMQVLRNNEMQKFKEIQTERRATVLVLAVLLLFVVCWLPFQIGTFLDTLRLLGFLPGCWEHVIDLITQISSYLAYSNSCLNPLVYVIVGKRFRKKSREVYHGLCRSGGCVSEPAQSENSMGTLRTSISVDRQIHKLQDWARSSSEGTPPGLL
Source text: Binding of ^3 H-Bradykinin was preformed using the method of D. C. Manning, […], and […]. Pharmacol. Exp. Ther., (1986),237 504. The tissues used in the binding assay were terminal ileum from male Hartley guinea pigs (150-350 g). After dissection, tissues were placed in 20 vol of ice-cold buffer A (25 Mm TES containing 0.2 g/L of 1,10-phenanthroline adjusted to Ph 6.8 with ammonium hydroxide) and homogenized using a Ploytron Tissumizer at setting 6 for 15 sec. The homogenate was centrifuged at 50,000×g for 10 min, the supernatant discarded, and the pellet resuspended in ice-cold buffer A by homogenization with the Polytron. Each tissue was homogenized and centrifuged three times. The final pellet was resuspended in buffer A containing bovine serum albumin (1 g/L) and Bacitracin (0.14 g/L) to a final volume of 170 Ml/g of the original tissue weight. The binding assay consisted of 1 Ml in 12×75 mm polypropylene tubes: 50 uL ^3 H-bradykinin (20,000 dpm, ~0.3 Nm in the final assay volume), […] displacing drug in buffer A, and 750 Ul tissue homogenate. […] Tubes were incubated for 90 min at ambient temperature. The assays were terminated by filtration over Whatman GF/B glass fiber filters that had been pretreated for 2 hours with polyethyleneimine (2 g/L) using a Brandel Tissue Harvester, followed by washing with 4×1 Ml aliquots of ice-cold 50 Mm Tris, Ph 7.4. Filters were dissolved in Ready-Safe Fluor (Beckman) for at least 90 min before quantitation by liquid scintillation spectrometry. Kd values were determined using saturation binding and analysis by […]. Pharmacol. Methods, (1985), 213)], followed by LIGAND [[…], Anal. Biochem., (1980), 220]. Ki values were determined using competitive analysis followed by EBDA and LIGAND. The following test results were obtained.

[1] = molecular target: T2, bradykinin receptors on intestinal (ileal longitudinal) smooth muscle (Cavia porcellus, UniProt O70526); assay: Bradykinin antagonist activity on guinea pig ileal longitudinal smooth muscle (contraction, Schild analysis); type: cell-based; settings: antagonism of bradykinin-induced contraction, guinea pig ileum longitudinal muscle, read-out: pA2 (converted)
T2 construct: The longitudinal muscle was separated from the underlying circular muscle; from tissue; host or cells: guinea pig ileal longitudinal smooth muscle strips
T2 sequence (O70526 1-372): T1 sequence (O70526 1-372)
Protocol: Determination of Bradykinin Antagonist Activity
Guinea pig intestine was removed and placed in a Petri dish containing Tyrodes solution and cut into 3-4 cm segments. The longitudinal muscle was separated from the underlying circular muscle using a cotton applicator (Paton and Zar, J. Physiol. (1968), 194:13). Muscle strips were connected to isometric force-displacement transducers (Grass or Gould) coupled to a physiograph and placed in tissue baths containing Tyrode's solution at 37° C. Each preparation was suspended under a resting tension of 2 g.
After equilibration of the tissues, appropriate volumes of bradykinin solutions were cumulatively added to the 10 Ml tissue baths to increase the concentration of bradykinin in the bath step-by-step without washing out after each single dose. Higher concentrations were added only after the preceding contraction had reached a steady value. […] Antagonism of bradykinin responses in the presence of antagonist were determined by repeating the cumulative addition procedure for bradykinin after the tissue has been exposed to the antagonist for 5 minutes. Three or four differentconcentrations of antagonist are studied sequentially in the same preparations. Responses were expressed as a percentage of the maximum contraction elicited by bradykinin in the absence of antagonist. pA2 values were calculated by Schild analysis.

[2] = anesthetized rat, intra-aortic vs intravenous administration; cited from earlier work
[3] = cited from earlier work

Row | Compound | Ki (bradykinin receptor) | Kb [1] | destruction on a single passage through the pulmonary circulation [2] | half life in the systemic circulation [3]
1 | CCO[C@@H]1C[C@@H](C(=O)N[C@@H](CCCNC(=N)N)C(=O)O)N(C(=O)[C@H]2Cc3ccccc3CN2C(=O)[C@H](CO)NC(=O)[C@H](Cc2ccccc2)NC(=O)CNC(=O)[C@@H]2C[C@@H](O)CN2C(=O)[C@@H]2CCCN2C(=O)[C@H](CCCNC(=N)N)NC(=O)[C@H](N)CCCNC(=N)N)C1 [D-Arg-Arg-Pro-4Hyp-Gly-Phe-Ser-D-Tic-(Hydroxyproline trans ethyl ether)-Arg] (H-[dR]RP[Hyp]GFS[dTic][Hyp](Et)R-OH) | 5.44 nM | 51.3 nM |  | 
2 | N=C(N)NCCC[C@@H](N)C(=O)N[C@@H](CCCNC(=N)N)C(=O)N1CCC[C@H]1C(=O)N1C[C@H](O)C[C@H]1C(=O)NCC(=O)N[C@@H](Cc1ccccc1)C(=O)N[C@@H](CO)C(=O)N1Cc2ccccc2C[C@@H]1C(=O)N1C[C@@H](Oc2ccccc2[N+](=O)[O-])C[C@H]1C(=O)N[C@@H](CCCNC(=N)N)C(=O)O [D-Arg-Arg-Pro-4Hyp-Gly-Phe-Ser-D-Tic-(hydroxyproline cis 2-nitrophenyl ether)-Arg] (H-[dR]RP[Hyp]GFS[dTic][X2]R-OH) | 3.76 nM | 141 nM |  | 
3 | N=C(N)NCCC[C@@H](N)C(=O)N[C@@H](CCCNC(=N)N)C(=O)N1CCC[C@H]1C(=O)N1C[C@H](O)C[C@H]1C(=O)NCC(=O)N[C@@H](Cc1ccccc1)C(=O)N[C@@H](CO)C(=O)N1Cc2ccccc2C[C@@H]1C(=O)N1C[C@@H](Oc2ccc([N+](=O)[O-])cc2)C[C@H]1C(=O)N[C@@H](CCCNC(=N)N)C(=O)O [D-Arg-Arg-Pro-4Hyp-Gly-Phe-Ser-D-Tic-(hydroxyproline cis 4-nitrophenyl ether)-Arg] (H-[dR]RP[Hyp]GFS[dTic][X3]R-OH) | 3.98 nM | 138 nM |  | 
4 | N=C(N)NCCC[C@@H](N)C(=O)N[C@@H](CCCNC(=N)N)C(=O)N1CCC[C@H]1C(=O)N1C[C@H](O)C[C@H]1C(=O)NCC(=O)N[C@@H](Cc1ccccc1)C(=O)N[C@@H](CO)C(=O)N1Cc2ccccc2C[C@@H]1C(=O)N1C[C@@H](OCC2CCCCC2)C[C@H]1C(=O)N[C@@H](CCCNC(=N)N)C(=O)O [D-Arg-Arg-Pro-4Hyp-Gly-Phe-Ser-D-Tic-(hydroxyproline cis cyclohexylmethyl ether)-Arg] (H-[dR]RP[Hyp]GFS[dTic][cisHyp](Cyclohexylmethyl)R-OH) | 13.2 nM |  |  | 
5 | CCO[C@H]1C[C@@H](C(=O)N[C@@H](CCCNC(=N)N)C(=O)O)N(C(=O)[C@H]2Cc3ccccc3CN2C(=O)[C@H](CO)NC(=O)[C@H](Cc2ccccc2)NC(=O)CNC(=O)[C@@H]2C[C@@H](O)CN2C(=O)[C@@H]2CCCN2C(=O)[C@H](CCCNC(=N)N)NC(=O)[C@H](N)CCCNC(=N)N)C1 [D-Arg-Arg-Pro-4Hyp-Gly-Phe-Ser-D-Tic-(hydroxyproline cis ethyl ether)-Arg] (H-[dR]RP[Hyp]GFS[dTic][cisHyp](Et)R-OH) | 4.15 nM | 110 nM |  | 
6 | N=C(N)NCCC[C@@H](N)C(=O)N[C@@H](CCCNC(=N)N)C(=O)N1CCC[C@H]1C(=O)N1C[C@H](O)C[C@H]1C(=O)NCC(=O)N[C@@H](Cc1ccccc1)C(=O)N[C@@H](CO)C(=O)N1Cc2ccccc2C[C@@H]1C(=O)N1C[C@@H](Oc2ccccc2)C[C@H]1C(=O)N[C@@H](CCCNC(=N)N)C(=O)O [D-Arg-Arg-Pro-4Hyp-Gly-Phe-Ser-D-Tic-(hydroxyproline cis phenyl ether)-Arg] (H-[dR]RP[Hyp]GFS[dTic][Pro(cis-4-OPh)]R-OH) | 2.51 nM |  |  | 
7 | N=C(N)NCCC[C@@H](N)C(=O)N[C@@H](CCCNC(=N)N)C(=O)N1CCC[C@H]1C(=O)N1C[C@H](O)C[C@H]1C(=O)NCC(=O)N[C@@H](Cc1ccccc1)C(=O)N[C@@H](CO)C(=O)N1Cc2ccccc2C[C@@H]1C(=O)N1C[C@@H](Sc2ccccc2)C[C@H]1C(=O)N[C@@H](CCCNC(=N)N)C(=O)O [D-Arg-Arg-Pro-4Hyp-Gly-Phe-Ser-D-Tic-(hydroxyproline cis phenyl thioether)-Arg] (H-[dR]RP[Hyp]GFS[dTic][X1]R-OH) | 0.06 nM | 11.2 nM |  | 
8 | CCCO[C@H]1C[C@@H](C(=O)N[C@@H](CCCNC(=N)N)C(=O)O)N(C(=O)[C@H]2Cc3ccccc3CN2C(=O)[C@H](CO)NC(=O)[C@H](Cc2cccs2)NC(=O)CNC(=O)[C@@H]2C[C@@H](O)CN2C(=O)[C@@H]2CCCN2C(=O)[C@H](CCCNC(=N)N)NC(=O)[C@H](N)CCCNC(=N)N)C1 [D-Arg-Arg-Pro-4Hyp-Gly-Thi-Ser-D-Tic-(Hydroxyproline cis propyl ether)-Arg] | 1.58 nM | 224 nM |  | 
9 | N=C(N)NCCC[C@@H](N)C(=O)N[C@@H](CCCNC(=N)N)C(=O)N1CCC[C@H]1C(=O)N1C[C@H](O)C[C@H]1C(=O)NCC(=O)N[C@@H](Cc1cccs1)C(=O)N[C@@H](CO)C(=O)N1Cc2ccccc2C[C@@H]1C(=O)N1C[C@H](OC(=O)Nc2ccccc2)C[C@H]1C(=O)N[C@@H](CCCNC(=N)N)C(=O)O [D-Arg-Arg-Pro-4Hyp-Gly-Thi-Ser-D-Tic-(Hydroxyproline trans phenyl carbamoyl)-Arg] | 11.5 nM |  |  | 
10 | CCCO[C@@H]1C[C@@H](C(=O)N[C@@H](CCCNC(=N)N)C(=O)O)N(C(=O)[C@H]2Cc3ccccc3CN2C(=O)[C@H](CO)NC(=O)[C@H](Cc2cccs2)NC(=O)CNC(=O)[C@@H]2C[C@@H](O)CN2C(=O)[C@@H]2CCCN2C(=O)[C@H](CCCNC(=N)N)NC(=O)[C@H](N)CCCNC(=N)N)C1 [D-Arg-Arg-Pro-4Hyp-Gly-Thi-Ser-D-Tic-(Hydroxyproline trans propyl ether)-Arg] | 4.85 nM | 138 nM |  | 
11 | CO[C@H]1C[C@@H](C(=O)N[C@@H](CCCNC(=N)N)C(=O)O)N(C(=O)[C@H]2Cc3ccccc3CN2C(=O)[C@H](CO)NC(=O)[C@H](Cc2cccs2)NC(=O)CNC(=O)[C@@H]2C[C@@H](O)CN2C(=O)[C@@H]2CCCN2C(=O)[C@H](CCCNC(=N)N)NC(=O)[C@H](N)CCCNC(=N)N)C1 [D-Arg-Arg-Pro-4Hyp-Gly-Thi-Ser-D-Tic-(hydroxyproline cis methyl ether)-Arg] | 1.83 nM | 141 nM |  | 
12 | RPPGFSPFR [bradykinin, Arg-Pro-Pro-Gly-Phe-Ser-Pro-Phe-Arg] |  |  | 98-99% | less than 30 seconds
